Assay results reported in US20060211725A1, “Use” (Astellas Pharma Inc., priority 2002, published 2006).
“Also recorded” adds a separate entry of the source.

What was measured:
Format in all cases: in vivo, rat
[1] = tested on: F344 kidney allograft in LEW recipient rats; assay: Recipient kidney function: plasma creatinine and proteinuria (Example 1); details: weekly for 90 days
Procedure: Inbred male Lewis rats (LEW) (RT1^I), weighing 250-300 g, were used as kidney transplantation recipients. Inbred male LEW and Fisher (F344) (RT1^IvI), weighing 250-350 g, were used as isograft and allograft donor rats, respectively. Kidney transplantation was performed using the modified technique of Fisher and Lee. [Fisher et al., Surgery, 58:904-914, 1965] Survival of kidney transplant was measured as time of recipient rat survival. Blood and 24 hr urine samples were collected once a week for plasma creatinine, proteinuria, and the measurement of antibody titer against donor glomeruli basement membrane protein (GBM). Kidney grafts were harvested on the 90th day posttranspalantation and subjected to histology and reverse transcriptase-polymerase chain reaction (RT-PCR) analysis. The compound (I), at doses of 10 mg/kg and 20 mg/kg were administered orally to recipient rats daily from day 0 to day 9 after transplantation. Control isograft and allograft recipients received no drug after transplantation.
The recipient's kidney function was determined by measuring their plasma creatinine and proteinuria once a week for 90 days. Blood and urine samples were collected from recipients with kidney grafts described in the above. Plasma creatinine was tested by Sigma Creatinine Kit and proteinuria by Bio-Rad Protein assay.

TGFβ gene expression = assay: RT-PCR for TGFβ gene expression in kidney graft (Example 1); details: 10 and 20 mg/kg PO day 0-9; day 90 after grafting; vs untreated allograft control
Procedure: Inbred male Lewis rats (LEW) (RT1^I), weighing 250-300 g, were used as kidney transplantation recipients. Inbred male LEW and Fisher (F344) (RT1^IvI), weighing 250-350 g, were used as isograft and allograft donor rats, respectively. Kidney transplantation was performed using the modified technique of Fisher and Lee. [Fisher et al., Surgery, 58:904-914, 1965] Survival of kidney transplant was measured as time of recipient rat survival. Blood and 24 hr urine samples were collected once a week for plasma creatinine, proteinuria, and the measurement of antibody titer against donor glomeruli basement membrane protein (GBM). Kidney grafts were harvested on the 90th day posttranspalantation and subjected to histology and reverse transcriptase-polymerase chain reaction (RT-PCR) analysis. The compound (I), at doses of 10 mg/kg and 20 mg/kg were administered orally to recipient rats daily from day 0 to day 9 after transplantation. Control isograft and allograft recipients received no drug after transplantation. TGFβ has been considered to play a crucial role for causing chronic allograft rejection. Kidney graft tissues harvested from recipients on day 90th after transplantation were subjected to RT-PCR for TGFβ gene expression. Total RNA was extracted from transplanted kidney tissues by TRIZOL. […]

[2] = tested on: F344 kidney allograft in LEW recipient rats; assay: Recipient kidney function under rescue treatment of chronic rejection (Example 3)
Procedure: (§1) The rats and kidney transplantation methods described in Example 1 were used. […] The isograft and untreated allograft served as control groups. Blood and urine samples were collected once a week from recipients with kidney grafts described in Example 1 for measuring their plasma creatinine and proteinuria. Plasma creatinine was tested by Sigma Creatinine Kit and proteinuria by Bio-Rad Protein assay.

[3] = tested on: F344 kidney allograft in LEW recipient rats; assay: Kidney graft histology under rescue treatment, modified Banff criteria (Example 3)
Procedure: as §1
Using the methods described in Example 1, histological changes of chronic allograft rejection under rescue treatment of the compound (I) were analyzed. Histological sections were blindly evaluated by two histologists and scored semiquantitatively based on modified Banff' criteria for transplant pathology.

[4] = tested on: F344 kidney allograft in LEW recipient rats; assay: Recipient kidney function, treatment with brief tacrolimus (Example 4)
Procedure: The rats and kidney transplantation methods described in Example 1 were used. Tacrolimus at dose of 1 mg/kg from day 0 to day 9 after transplantation, and the compound (I) at doses of 10 mg/kg and 15 mg/kg from day 28 today 60 after transplantation were administered orally to recipient rats. In this study LEW recipients were briefly treated with oral tacrolimus at 1 mg/kg/day for 10 days after transplantation to avoid acute rejection and slow chronic rejection that gradually destroys the F344 kidney graft, resulting in functional and histological changes similar to the chronic rejection in human. The isograft, untreated allograft and allograft treated with tacrolimus 1 mg/kg for 10 days alone served as control groups. Blood and urine samples were collected once a week from recipients with kidney grafts described in Example 1 for measuring their plasma creatinine and proteinuria. Plasma creatinine was tested by Sigma Creatinine Kit and proteinuria by Bio-Rad Protein assay.

[5] = rescue 20 mg/kg PO for 3 weeks from onset of raised creatinine or proteinuria, after drug discontinued
[6] = 20 mg/kg for 3 weeks during ongoing chronic rejection, vs untreated allograft control
[7] = rescue, From day 40-70 (20 mg/kg for 3 weeks), one line per rat

C#CCC/C(O)=C(\C#N)C(=O)Nc1ccc(C(F)(F)F)cc1 [Compound (I), (2Z)-2-cyano-3-hydroxy-N-[4-(trifluoromethyl)phenyl]-2-hepten-6-ynamide]
plasma creatinine ([1]; 10 mg/kg PO day 0-9): maintained normal creatinine | proteinuria ([1]; 10 mg/kg PO day 0-9): undetectable proteinuria | plasma creatinine ([1]; 20 mg/kg PO day 0-9): maintained normal creatinine | proteinuria ([1]; 20 mg/kg PO day 0-9): undetectable proteinuria | TGFβ gene expression (mRNA) in kidney graft (TGFβ gene expression): inhibited TGFβ gene expression in a dose-dependent manner | plasma creatinine [2, 5]: tended to be at a normal level | proteinuria [2, 5]: tended to be at a normal level | recipient kidney function ([2]; rescue 20 mg/kg PO for 3 weeks, immediate effect): did not show an immediate improvement | approximate cumulative reduction in Banff score: fibro-intimal hyperplasia [3, 6]: ~53% | approximate cumulative reduction in Banff score: glomerulitis [3, 6]: ~38% | approximate cumulative reduction in Banff score: interstitial inflammation [3, 6]: ~50% | approximate cumulative reduction in Banff score: mesangiolysis [3, 6]: ~33% | approximate cumulative reduction in Banff score: transplant glomerulopathy [3, 6]: ~89% | approximate cumulative reduction in Banff score: tubular atrophy [3, 6]: ~42% | approximate cumulative reduction in Banff score: tubulitis [3, 6]: ~70% | approximate cumulative reduction in Banff score: vasculitis [3, 6]: ~92% | Banff grade: Fibro-intimal Hyperplasia [3, 7]: ++ ((++):Grade 2, Moderate); also recorded: − ((−):Grade 0, Normal) | Banff grade: Glomerulitis [3, 7]: + ((+):Grade 1, Mild); also recorded: − ((−):Grade 0, Normal); also recorded: ++ ((++):Grade 2, Moderate) | Banff grade: Glomerulosclerosis [3, 7]: − ((−):Grade 0, Normal); also recorded: + ((+):Grade 1, Mild) | Banff grade: Inflammation [3, 7]: + ((+):Grade 1, Mild); also recorded: ++ ((++):Grade 2, Moderate) | Banff grade: Mesangiolysis [3, 7]: − ((−):Grade 0, Normal); also recorded: + ((+):Grade 1, Mild) | Banff grade: Transplant Glomerulopathy [3, 7]: − ((−):Grade 0, Normal); also recorded: + ((+):Grade 1, Mild) | Banff grade: Tubular Atrophy [3, 7]: − ((−):Grade 0, Normal); also recorded: + ((+):Grade 1, Mild) | Banff grade: Tubulitis [3, 7]: − ((−):Grade 0, Normal) | Banff grade: Vasculitis [3, 7]: +++ ((+++):Grade 3, Severe); also recorded: + ((+):Grade 1, Mild) | proteinuria ([4]; Compound (I) 10 mg/kg day 28 to 60 after brief tacrolimus 1 mg/kg day 0-9): decreased the progression of proteinuria | plasma creatinine level ([4]; Compound (I) 10 mg/kg day 28 to 60 after brief tacrolimus 1 mg/kg day 0-9, entire study period): < 1.5 mg/dL | proteinuria ([4]; Compound (I) 15 mg/kg day 28 to 60 after brief tacrolimus 1 mg/kg day 0-9): decreased the progression of proteinuria | plasma creatinine ([4]; Compound (I) 15 mg/kg/day day 28 to 60 after brief tacrolimus, increased from week 3 to week 9): it was reversed and maintained in a normal level
